Laboratory results published in US20220354119A1, “COMPOSITION OF A RHEOLOGY MODIFIER AND DIHALOHYDANTOIN” (Rohm and Haas Company, priority 2019, published 2022).
“Also recorded” adds a separate entry of the source. Counter-ions that a name gives are not always drawn.

Test system: not listed separately
Test: Heat age stability of HEUR-biocide formulation (appearance after heat aging)
Type: physicochemical
Settings: biocide admixed with HEUR rheology modifier (RM-2020E or RM-8W); oven 50° C. for 2 weeks
Description: A number of biocides were admixed with ACRYSOL™ RM-2020E Rheology Modifier (RM-2020E, A Trademark of The Dow Chemical Company or Its Affiliates) and ACRYSOL™ RM-8W (RM-8W). In addition to testing biocides admixed with RM-2020E or RM-8W as-delivered, acid was also added to the rheology modifiers to lower the pH to approximately 4.5. Samples prepared with the biocide didecyldimethylammonium chloride were only tested when RM-2020E and RM-8W were prepared with 10-15% surfactant in the composition. The compositions were heat-aged in an oven maintained at 50° C. for 2 weeks. Heating aging was also carried out for RM-2020E in the absence of any biocide. If the composition failed the heat aging test, it was not tested for efficacy.
All heat aged samples were compared against a reference HEUR (RM-2020E or
The pass/fail criterion for biocide efficacy was determined by the formation of less than 1×10^4 colony forming units per mL (CFU/mL) of sample tested.

Molecule | Sample Appearance after Heat Age testing
CC1(C)C(=O)N(Cl)C(=O)N1Br [1-bromo-3-chloro-5,5-dimethylhydantoin] | non-degradative; also recorded: unchanged
CCCCCCCCCC[N+](C)(C)CCCCCCCCCC.[Cl-] [Didecyldimethylammonium chloride] | unchanged
C/C=C/C=C/C(=O)[O-].[K+] [Potassium sorbate] | Brown
[Na+].[O-]c1ccccc1-c1ccccc1 [Sodium o-phenylphenolate] | White
[Na+].[O-][n+]1ccccc1[S-] [Sodium pyrithione] | Bright yellow
Oc1ccccc1-c1ccccc1 [o-phenylphenol] | White
Zinc pyrithione | White sediment

Test system: pool of 6 different Gram negative and Gram positive bacterial strains
Test: Bacterial challenge test (TAUNOVATE III High Throughput testing system, MPN)
Type: cell-based
Settings: 300 ppm biocide in HEUR; 30° C., repeated challenges
Description: Efficacy of all biocides were determined as described for 1-bromo-3-chloro-5,5-dimethylhydantion. The only difference was the concentration of the biocide, which is shown as a range in Table 1.
1-Bromo-3-chloro-5,5-dimethylhydantoin (0.5% aqueous solution) was prepared by dispersing Chlorox Pool and Spa (0.25 g in 49.75 g water). Unpreserved RM-2020E thickeners were dosed with biocide and challenge tested with bacteria using the TAUNOVATE℠ III High Throughput testing system. In general, the tested biocides were calibrated for density and prepared at levels 10× higher than the target concentrations using a robotic system. For example, to target 15 ppm and 40 ppm concentrations of 1-bromo-3-chloro-5,5-dimethylhydantoin respectively, 150 ppm and 400 ppm concentrations of 1-bromo-3-chloro-5,5-dimethylhydantoin were prepared by the automated system. […]
The inoculum was prepared by making a 1:1 pool of overnight cultures of 6 different Gram negative and Gram positive bacterial strains, and then diluted 1:20 with tryptic soy broth. […] Three additional challenges were performed 7 d apart with fresh bacterial cultures and growth recovery was assessed 1 and 7 d after inoculation. […]
(TSB) with indicator. […] The MPN was calculated to determine the relative growth scale rating, which is a measure of the passing or failure of the sample for growth. […]

Molecule | Challenge Test
CCCCCCCCCCCCNC(=N)N [Dodecylguanidine Hydrochloride] | Fail (The pass/fail criterion for biocide efficacy was determined by the formation of less than 1×10^4 colony forming units per mL (CFU/mL) of sample tested)

Same assay, conditions: 400 ppm biocide in HEUR prepared with 10-15% surfactant; 30° C., repeated challenges

Molecule | Challenge Test
CCCCCCCCCC[N+](C)(C)CCCCCCCCCC.[Cl-] [Didecyldimethylammonium chloride] | Fail (The pass/fail criterion for biocide efficacy was determined by the formation of less than 1×10^4 colony forming units per mL (CFU/mL) of sample tested)
